Key:
[1] = excess molar enthalpy (molar enthalpy of mixing); xn = mol fraction of the nth substance listed; conditions: 101 kPa, Liquid, Flow calorimetry
[2] = xn = mol fraction of the nth substance listed; conditions: Liquid; for speed of sound: Linear variable-path acoustic interferometer; for mass density: Vibrating tube method

C=C1CCC2CC1C2(C)C (stereo not drawn) [β-pinene] + CCC(C)O
excess molar enthalpy [kcal/mol], [1]
Conditions	283.15 K	298.15 K	313.15 K
x1 = 0.066	0.0306	0.0413	0.0397
x1 = 0.134	0.0629	0.087	0.0968
x1 = 0.259	0.111	0.152	0.179
x1 = 0.38	0.143	0.196	0.234
x1 = 0.489	0.164	0.223	0.2682
x1 = 0.581	0.172	0.232	0.2806
x1 = 0.677	0.169	0.227	0.2768
x1 = 0.765	0.155	0.208	0.257
x1 = 0.845	0.131	0.177	0.223
x1 = 0.927	0.0925	0.127	0.161
x1 = 0.963	0.0669	0.0903	0.112

[2], 101.3 kPa
Conditions	mass density [kg/m3]	speed of sound [m/s]
283.15 K, x1 = 0.0526	820.26	1271.9
283.15 K, x1 = 0.1031	824.88	1276.6
283.15 K, x1 = 0.2058	833.37	1285.1
283.15 K, x1 = 0.3006	840.38	1292.5
283.15 K, x1 = 0.4019	847.14	1299.8
283.15 K, x1 = 0.5035	853.29	1307.2
283.15 K, x1 = 0.6023	858.87	1314.9
283.15 K, x1 = 0.7047	864.32	1323.5
283.15 K, x1 = 0.7995	869.14	1332.4
283.15 K, x1 = 0.8988	873.93	1342.4
283.15 K, x1 = 0.9401	875.92	1347
298.15 K, x1 = 0.0522	807.98	1216.6
298.15 K, x1 = 0.105	812.54	1220.2
298.15 K, x1 = 0.206	820.79	1227.3
298.15 K, x1 = 0.3006	827.65	1233.5
298.15 K, x1 = 0.3995	834.25	1240
298.15 K, x1 = 0.5017	840.58	1247.2
298.15 K, x1 = 0.6096	846.71	1255.5
298.15 K, x1 = 0.7011	851.61	1263
298.15 K, x1 = 0.8035	856.93	1272.5
298.15 K, x1 = 0.9067	862.02	1282.6
298.15 K, x1 = 0.9449	863.9	1287
313.15 K, x1 = 0.0526	794.95	1161.7
313.15 K, x1 = 0.0997	799.22	1164.1
313.15 K, x1 = 0.2028	807.25	1170.4
313.15 K, x1 = 0.2999	814.22	1175.7
313.15 K, x1 = 0.4043	821.27	1182.5
313.15 K, x1 = 0.5088	827.69	1189.9
313.15 K, x1 = 0.6027	833.19	1197
313.15 K, x1 = 0.6993	838.59	1205
313.15 K, x1 = 0.8035	844.16	1214.6
313.15 K, x1 = 0.896	848.93	1223.2
313.15 K, x1 = 0.9453	851.52	1228.7

C=C1CCC2CC1C2(C)C (stereo not drawn) [β-pinene] + CCCCO
excess molar enthalpy [kcal/mol], [1]
Conditions	283.15 K	298.15 K	313.15 K
x1 = 0.066	0.0117	0.0165	0.0213
x1 = 0.134	0.0253	0.0366	0.0468
x1 = 0.259	0.0514	0.0741	0.102
x1 = 0.371	0.0724	0.102	0.137
x1 = 0.489	0.0901	0.125	0.17
x1 = 0.591	0.101	0.138	0.186
x1 = 0.677	0.105	0.141	0.19
x1 = 0.765	0.0985	0.133	0.179
x1 = 0.856	0.0846	0.114	0.153
x1 = 0.927	0.0674	0.0889	0.116
x1 = 0.975	0.0435	0.0667	0.0786

[2], 101 kPa
Conditions	mass density [kg/m3]	speed of sound [m/s]
283.15 K, x1 = 0.0494	822.4	1295.8
283.15 K, x1 = 0.1023	827.32	1299.6
283.15 K, x1 = 0.204	835.8	1305.9
283.15 K, x1 = 0.3052	843.23	1311.7
283.15 K, x1 = 0.4007	849.5	1316.8
283.15 K, x1 = 0.5005	855.39	1321.9
283.15 K, x1 = 0.5929	–	1323.6
283.15 K, x1 = 0.695	865.44	1332
283.15 K, x1 = 0.7975	870.17	1338.1
283.15 K, x1 = 0.9009	874.7	1345.2
283.15 K, x1 = 0.9179	875.44	1347.3
298.15 K, x1 = 0.054	811.4	1243.7
298.15 K, x1 = 0.1027	815.79	1246.2
298.15 K, x1 = 0.1893	822.86	1250.3
298.15 K, x1 = 0.2992	830.92	1255.2
298.15 K, x1 = 0.4011	837.49	1259.4
298.15 K, x1 = 0.4987	843.18	1263.5
298.15 K, x1 = 0.6041	848.79	1268.1
298.15 K, x1 = 0.6946	853.25	1272.3
298.15 K, x1 = 0.7745	856.95	1276.6
298.15 K, x1 = 0.9003	862.46	1284.6
298.15 K, x1 = 0.9349	863.93	1287.4
313.15 K, x1 = 0.0493	799.21	1193.1
313.15 K, x1 = 0.1011	803.76	1194.6
313.15 K, x1 = 0.1988	811.57	1197.8
313.15 K, x1 = 0.3012	818.82	1201
313.15 K, x1 = 0.3998	825.01	1203.9
313.15 K, x1 = 0.5009	830.84	1207.3
313.15 K, x1 = 0.6003	836.12	1211.4
313.15 K, x1 = 0.7062	841.36	1216.2
313.15 K, x1 = 0.8017	845.7	1221.1
313.15 K, x1 = 0.8988	850.1	1227.1
313.15 K, x1 = 0.954	852.44	1231.4

From the NIST ThermoML archive (doi:10.1021/je050294+)
